Experimental data from ChEMBL document CHEMBL3301562, “MMV Box screening against Plasmodium falciparum protein kinases and aminoacyl tRNA synthetases”.

Tests used:
Type in all cases: functional
[1] = molecular target: T1, Cdk-related protein kinase 6 (Plasmodium falciparum, UniProt O77239); test: Final concentrations were 1.5 uM ATP, 5 mM MnCl2, and 15 ug/ml PK6 in a buffer of 100 mM Tris-HCl (pH 7.5). 50 ug/mL MBP was provided as the substrate; 10 uM staurosporine was used as a control inhibitor. Incubation time was 3 hours and 40 minutes.The catalytic activity of each kinase was considered proportional to ATP consumed, as determined from measurements of residual [ATP] with the luciferase-based reagent Kinase-Glo (Promega) following incubation. Luminescence (proportional to residual [ATP]) was measured on the plate readers FLx800 (BioTek Instruments, Winooski, VT, USA) and MicroBeta2.
T1 sequence (O77239 whole entry): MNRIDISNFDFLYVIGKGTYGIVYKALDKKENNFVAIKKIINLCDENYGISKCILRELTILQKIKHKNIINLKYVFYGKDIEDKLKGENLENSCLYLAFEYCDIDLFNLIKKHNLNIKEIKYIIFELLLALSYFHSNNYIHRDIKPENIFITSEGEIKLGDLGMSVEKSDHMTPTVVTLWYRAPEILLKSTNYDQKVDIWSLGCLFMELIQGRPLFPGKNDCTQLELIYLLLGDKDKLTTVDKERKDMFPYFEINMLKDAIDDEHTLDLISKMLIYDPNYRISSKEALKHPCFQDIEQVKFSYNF

[2] = molecular target: T2, Mitogen-activated protein kinase (Plasmodium falciparum, UniProt Q25917); test: Final concentrations were 1 uM ATP, 0.5 mM DTT, 1 mM MgCl2, 0.5 mg/mL BSA, and 10 ug/ml MAP2 in a buffer of 50 mM HEPES (pH 7.0). 0.5 mg/mL histone III-S served as the substrate (13); 100 uM AMP-PNP, an ATP analog, was used as a control inhibitor. Incubation time was 4 hours.
T2 sequence (Q25917 whole entry): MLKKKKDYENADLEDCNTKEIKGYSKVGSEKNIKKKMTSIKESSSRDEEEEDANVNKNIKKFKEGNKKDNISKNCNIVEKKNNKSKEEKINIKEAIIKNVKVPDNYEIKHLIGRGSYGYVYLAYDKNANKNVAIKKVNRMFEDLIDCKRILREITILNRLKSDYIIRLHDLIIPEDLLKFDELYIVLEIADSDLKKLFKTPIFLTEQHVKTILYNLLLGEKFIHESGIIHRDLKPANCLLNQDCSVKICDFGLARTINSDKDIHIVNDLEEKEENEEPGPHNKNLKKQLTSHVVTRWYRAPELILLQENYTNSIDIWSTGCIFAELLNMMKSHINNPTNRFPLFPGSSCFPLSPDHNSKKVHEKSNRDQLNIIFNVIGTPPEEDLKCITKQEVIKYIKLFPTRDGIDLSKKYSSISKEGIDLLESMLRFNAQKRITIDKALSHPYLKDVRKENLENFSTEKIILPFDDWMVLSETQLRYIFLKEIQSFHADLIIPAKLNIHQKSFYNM

Proline--tRNA ligase = molecular target: T3, Proline--tRNA ligase (Plasmodium falciparum (isolate 3D7), UniProt Q8I5R7); test: MMV: ProRS recombinant Plasmodium falciparum Prolyl-tRNA-synthetase, assay with yeast tRNA, ATP, and proline and 3 uM MMV malaria box compound, assay read out with kinase glo as % inhibition.
T3 sequence (Q8I5R7 whole entry): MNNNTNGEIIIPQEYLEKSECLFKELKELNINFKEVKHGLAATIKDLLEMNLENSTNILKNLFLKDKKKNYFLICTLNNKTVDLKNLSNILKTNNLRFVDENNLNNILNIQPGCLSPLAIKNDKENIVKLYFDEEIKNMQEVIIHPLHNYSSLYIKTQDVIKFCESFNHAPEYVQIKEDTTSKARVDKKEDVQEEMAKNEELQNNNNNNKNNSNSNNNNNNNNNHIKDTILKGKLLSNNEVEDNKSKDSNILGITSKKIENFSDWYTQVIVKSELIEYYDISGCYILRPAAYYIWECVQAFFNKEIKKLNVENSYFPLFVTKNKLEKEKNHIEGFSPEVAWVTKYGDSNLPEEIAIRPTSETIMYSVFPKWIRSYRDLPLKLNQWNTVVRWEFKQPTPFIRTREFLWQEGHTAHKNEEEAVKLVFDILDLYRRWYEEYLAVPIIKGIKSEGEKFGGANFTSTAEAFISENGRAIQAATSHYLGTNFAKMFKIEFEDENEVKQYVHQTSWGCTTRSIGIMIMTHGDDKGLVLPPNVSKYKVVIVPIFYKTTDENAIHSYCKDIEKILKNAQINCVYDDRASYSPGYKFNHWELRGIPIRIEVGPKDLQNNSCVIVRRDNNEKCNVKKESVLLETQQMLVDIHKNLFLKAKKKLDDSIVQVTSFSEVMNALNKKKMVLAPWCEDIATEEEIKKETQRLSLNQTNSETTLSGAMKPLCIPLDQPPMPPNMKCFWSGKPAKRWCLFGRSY

[3] = molecular target: Calcium-dependent protein kinase 1 (Plasmodium falciparum, UniProt P62344); test: MMV: CDPK1 Protein kinase inhibition assay using recombinant PfCDPK1, syntide 2 peptide substrate, ATP and KinaseGlo to measure % inhibition at 1 uM MMV box compound.
Calcium-dependent protein kinase 1, sequence (P62344 whole entry): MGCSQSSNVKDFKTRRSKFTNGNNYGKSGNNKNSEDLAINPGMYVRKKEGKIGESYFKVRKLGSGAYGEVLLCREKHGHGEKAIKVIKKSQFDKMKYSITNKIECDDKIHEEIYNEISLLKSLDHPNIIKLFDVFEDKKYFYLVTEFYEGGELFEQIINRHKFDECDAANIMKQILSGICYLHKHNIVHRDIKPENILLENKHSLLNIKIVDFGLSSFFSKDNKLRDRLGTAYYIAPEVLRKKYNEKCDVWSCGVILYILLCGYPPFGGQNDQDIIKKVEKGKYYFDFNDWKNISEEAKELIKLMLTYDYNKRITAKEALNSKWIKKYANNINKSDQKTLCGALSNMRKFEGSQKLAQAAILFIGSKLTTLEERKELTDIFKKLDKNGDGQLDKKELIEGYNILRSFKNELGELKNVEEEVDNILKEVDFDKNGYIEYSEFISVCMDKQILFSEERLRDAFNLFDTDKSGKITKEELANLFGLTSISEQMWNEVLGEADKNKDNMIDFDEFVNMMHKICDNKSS

[4] = molecular target: T4, Putative uncharacterized protein pk7 (Plasmodium falciparum, UniProt O96214); test: Final concentrations were 1 uM ATP, 2 mM DTT, 20 mM MgCl2, 2 mM MnCl2, 0.01% BSA, and 6 ug/ml PK7, in a buffer of 20 mM Tris-HCl (pH 7.5). The enzyme itself was the only substrate present (since autophosphorylation occurs); 100 uM 1NA-PP1 was used as a control inhibitor. Incubation time was 3 hours.
T4 sequence (O96214 whole entry): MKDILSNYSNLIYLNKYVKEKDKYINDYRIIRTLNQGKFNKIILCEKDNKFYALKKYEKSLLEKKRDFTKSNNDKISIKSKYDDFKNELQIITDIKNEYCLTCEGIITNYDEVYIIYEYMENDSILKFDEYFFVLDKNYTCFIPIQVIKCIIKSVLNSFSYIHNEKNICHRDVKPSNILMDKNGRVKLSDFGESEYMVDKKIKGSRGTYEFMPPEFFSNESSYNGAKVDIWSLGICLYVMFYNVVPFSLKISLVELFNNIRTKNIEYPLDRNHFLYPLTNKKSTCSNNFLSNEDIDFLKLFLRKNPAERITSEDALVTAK

Lysine--tRNA ligase = Lysine--tRNA ligase (Plasmodium falciparum (isolate 3D7), UniProt Q8IDJ8); test: MMV: KRS recombinant Plasmodium falciparum Lysyl-tRNA-synthetase, assay with yeast tRNA, ATP, and lysine and 3 uM MMV malaria box compound, assay read out with kinase glo as % inhibition.
Lysine--tRNA ligase, sequence (Q8IDJ8 whole entry): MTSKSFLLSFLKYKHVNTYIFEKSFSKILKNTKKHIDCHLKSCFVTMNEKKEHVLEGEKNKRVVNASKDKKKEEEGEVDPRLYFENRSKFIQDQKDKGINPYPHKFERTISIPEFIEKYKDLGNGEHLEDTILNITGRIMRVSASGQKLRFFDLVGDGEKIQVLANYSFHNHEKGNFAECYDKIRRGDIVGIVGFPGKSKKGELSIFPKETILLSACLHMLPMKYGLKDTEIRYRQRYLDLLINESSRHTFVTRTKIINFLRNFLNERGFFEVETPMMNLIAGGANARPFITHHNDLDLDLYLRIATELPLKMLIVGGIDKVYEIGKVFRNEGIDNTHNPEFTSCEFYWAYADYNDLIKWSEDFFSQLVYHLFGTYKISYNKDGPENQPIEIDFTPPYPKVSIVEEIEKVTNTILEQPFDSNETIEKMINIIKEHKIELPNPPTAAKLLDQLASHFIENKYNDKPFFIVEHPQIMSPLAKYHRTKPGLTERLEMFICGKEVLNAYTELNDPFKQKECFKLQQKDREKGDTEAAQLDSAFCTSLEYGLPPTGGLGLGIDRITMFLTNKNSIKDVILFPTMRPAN

[5] = molecular target: T5, Calcium-dependent protein kinase 4 (Plasmodium falciparum (isolate 3D7), UniProt Q8IBS5); test: MMV: CDPK4 Protein kinase inhibition assay using recombinant PfCDPK4, syntide2 peptide substrate, ATP and KinaseGlo to measure % inhibition at 1 uM MMV box compound.
T5 sequence (Q8IBS5 whole entry): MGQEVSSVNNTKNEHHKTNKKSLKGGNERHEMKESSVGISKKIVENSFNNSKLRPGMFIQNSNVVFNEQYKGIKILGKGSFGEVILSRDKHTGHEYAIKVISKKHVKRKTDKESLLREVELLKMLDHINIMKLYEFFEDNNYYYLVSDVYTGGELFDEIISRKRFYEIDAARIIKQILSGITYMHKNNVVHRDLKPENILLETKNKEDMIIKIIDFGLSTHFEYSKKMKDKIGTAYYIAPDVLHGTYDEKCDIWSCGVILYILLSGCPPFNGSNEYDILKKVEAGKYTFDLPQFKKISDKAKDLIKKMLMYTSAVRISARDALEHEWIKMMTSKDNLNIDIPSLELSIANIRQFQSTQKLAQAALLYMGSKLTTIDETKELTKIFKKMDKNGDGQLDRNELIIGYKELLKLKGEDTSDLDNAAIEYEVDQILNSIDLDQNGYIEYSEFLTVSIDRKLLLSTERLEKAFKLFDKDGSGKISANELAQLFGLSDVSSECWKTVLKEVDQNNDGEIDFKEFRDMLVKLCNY

SMILES | IC50 [1] [nM] | IC50 [2] [nM] | IC50 (Proline--tRNA ligase) [nM] | IC50 [3] [nM] | IC50 [4] [nM] | IC50 (Lysine--tRNA ligase) [nM] | IC50 [5] [nM]
c1ccc2cc3c(Nc4ccc(N5CCOCC5)cc4)ccnc3cc2c1 | > 1000 | > 1000 | > 2500 | > 1000 | > 1000 | > 2500 | > 1000
CCOC(=O)c1cn(CC)c2cc(N3CCCCC3)c(F)cc2c1=O | > 1000 | > 1000 | > 2500 | > 1000 | > 1000 | > 2500 | > 1000
CCCc1cc(O)c2c3c(c(=O)oc2c1)CN(C)CC3 | > 1000 | > 1000 | > 2500 | > 1000 | > 1000 | > 2500 | > 1000
CCOc1ccc(-c2nonc2NC(=O)c2cccc(C)c2)cc1OCC | > 1000 | > 1000 | > 2500 | > 1000 | > 1000 | > 2500 | > 1000
COc1ccc2c(=O)cc(C(Cl)(Cl)Cl)oc2c1 | > 1000 | > 1000 | > 2500 | > 1000 | > 1000 | > 2500 | > 1000
COc1ccc(-c2nc3cc(Cc4ccc5[nH]c(-c6ccc(OC)cc6)nc5c4)ccc3[nH]2)cc1 | > 1000 | > 1000 | > 2500 | > 1000 | > 1000 | > 2500 | > 1000
CCOC(=O)c1ccc2[nH]c(-c3ccccc3)cc(=O)c2c1 | > 1000 | > 1000 | > 2500 | > 1000 | > 1000 | > 2500 | > 1000
Cc1cc(Nc2ccc(Cl)cc2)n2nc(C(F)(F)F)nc2n1 | > 1000 | > 1000 | > 2500 | > 1000 | > 1000 | > 2500 | > 1000
CCCCCCOC(=O)C1=C(C)NC(=O)NC1c1ccccc1F (configuration not stated) | > 1000 | > 1000 | > 2500 | > 1000 | > 1000 | > 2500 | > 1000
Cc1ccc(Nc2nc(NCCO)c3ccccc3n2)cc1C | > 1000 | > 1000 | > 2500 | > 1000 | > 1000 | > 2500 | > 1000
COc1ccc(NC(=O)C2c3ccccc3C(=O)N(CC(C)C)C2c2cccs2)cc1 (configuration not stated) | > 1000 | > 1000 | > 2500 | > 1000 | > 1000 | > 2500 | > 1000
